Structures are written as SMILES.

The source of these data is patent publication US20100196929A1, “STABILISATION OF THE PHENOTYPIC PROPERTIES OF ISOLATED PRIMARY CELLS” (Vrije Universiteit Brussel, priority 2007, published 2010).

Data set [1] relates to EGF-stimulated adult primary rat hepatocytes. Kind of data set: DNA synthesis ([methyl-3H]-thymidine incorporation) in EGF-stimulated hepatocytes. Particulars: 72 hours; for dose-response of inhibition of DNA replication: increasing concentrations (4-Me2N-BAVAH 10-50 μM, AN-8 1-5 μM, DAC 1-500 μM). Type of data set: cell-based. The procedure:
(§1) Hepatocytes (viability >80%) were isolated from male Sprague-Dawley rats by a two-step collagenase perfusion. Cells (0.4×10^5 cells/cm^2) were cultured in MEM/M199 (3:1, v/v), containing 1 mg/ml BSA, 5 μg/ml bovine insulin, 2 mM L-glutamine, antibiotics (7.3 IU/ml benzyl penicillin, 50 μg/ml streptomycin sulphate, 50 μg/ml kanamycin monosulphate and 10 μg/ml sodium ampicillin) and 10% (v/v) fetal calf serum.
(§2) After 4 h, medium was removed and serum-free medium, containing 0.5 μg/ml hydrocortisone and 50 μg/ml EGF, was added and renewed daily.
DAC was dissolved in PBS, 4-Me2N-BAVAH and AN-8 were dissolved in ethanol, to a concentration of 100 mM for DAC and 4-Me2N-BAVAH and 25 mM for AN-8.
(§3) 1) unstimulated cultures, referred to as “negative control” or “−EGF”, where hepatocytes are arrested at the mitogen-dependent R-point. 2) EGF-stimulated cultures, referred to as “positive control” or “+EGF”, in which EGF induces G1/S transition and mitosis. 3) EGF-stimulated cultures treated with DAC and/or in combination with 4-Me2N-BAVAH or AN-8.
DNA replication was measured as incorporation of radioactively labeled thymidine into newly synthesized DNA. Cells were incubated with [methyl-3H]-thymidine (25 Ci/mmol) for 24 hours and harvested at 72 hours in ice-cold PBS, the time point where DNA synthesis in untreated EGF-stimulated cultures is maximal. DNA was precipitated with 30% trichloroacetic acid (TCA) overnight at 4° C. After centrifugation, cells were washed once with 10% TCA and twice with 5% TCA. The pellet was solved in formic acid and radioactively labeled thymidine was measured by liquid scintillation counting.
From the moment of seeding, adult primary rat hepatocytes, stimulated with EGF 4 hours after plating and constantly thereafter, were exposed to different concentrations of 4-Me2N-BAVAH (10 μM, 15 μM, 20 μM, 25 μM and 50 μM), AN-8 (1 μM, 2.5 μM and 5 μM) or DAC (1 μM, 10 μM, 50 μM, 100 μM, 250 μM and 500 μM). [methyl-3H]-Thymidine incorporation was measured at 72 hours.
From the moment of seeding, adult primary rat hepatocytes, stimulated with EGF 4 hours after plating and constantly thereafter, were exposed to different combinations of 4-Me2N-BAVAH and DAC or AN-8 and DAC:
[methyl-3H]-Thymidine incorporation was measured at 72 hours.

Data set [2] shares this test system. Kind of data set: Albumin secretion into culture medium (ELISA). The class given is cell-based. The note with it: 48-72 hours of culture. The method, then: Hepatocytes (viability >80%) are isolated from male Sprague-Dawley rats by a two-step collagenase perfusion. Cells (0.4×10^5 cells/cm^2) are cultured in MEM/M199 (3:1, v/v), containing 1 mg/ml BSA, 5 μg/ml bovine insulin, 2 mM L-glutamine, antibiotics (7.3 IU/ml benzyl penicillin, 50 μg/ml streptomycin sulphate, 50 μg/ml kanamycin monosulphate and 10 μg/ml sodium ampicillin) and 10% (v/v) fetal calf serum.
After 4 h, medium was removed and serum-free medium, containing 0.5 μg/ml hydrocortisone and 50 μg/ml EGF, is added and renewed daily.
1) EGF-stimulated cultures, referred to as “positive control” or “control”. 2) EGF-stimulated cultures treated with DAC and/or in combination with 4-Me2N-BAVAH or AN-8.
Medium samples were analyzed for their albumin content by an enzyme-linked immunosorbent assay (ELISA) according to Dunn et al. 1991 (Biotechnol Prog 7(3): 237-245).
From the moment of seeding, adult primary rat hepatocytes, stimulated with EGF 4 hours after plating and constantly thereafter, were exposed to 50 μM 4-Me2N-BAVAH, 5 μM AN-8 or 500 μM DAC. Albumin secretion into the culture medium was measured between 48-72 hours of culture (FIG. 7A-C).
From the moment of seeding, adult primary rat hepatocytes, stimulated with EGF 4 hours after plating and constantly thereafter, were exposed to a combination of 25 μM 4-Me2N-BAVAH and 50 μM DAC. Albumin secretion into the culture medium is measured between 48-72 hours of culture (FIG. 8A).

The subject of data set [3] is hepatoma cell lines. The note with it: cited from earlier work.
Data set [4] deals with primary hepatocytes. Particulars: cited from earlier work.
In data set [5] the test system is EGF-stimulated cultured hepatocytes. Kind of data set: Cell morphology by inverse light microscopy. The class given is cell-based, rat. The procedure:
as §1, §2, §3
Cell morphology was analyzed by inverse light microscopy, using an Optiphot Nikon Phase Contrast microscope.

In data set [6] the test system is CYP1A1. Kind of data set: CYP1A1 protein expression (immunoblot). Particulars: increasing concentrations (DAC 1-500 μM, AN-8 1-5 μM); 72 h. Type of data set: cell-based, rat. The method, then:
as §1, with “two step” for “two-step”, “serum. After 4 h, medium was removed and serum-free medium, containing 0.5 μg/ml hydrocortisone and 50 μg/ml EGF, was added and renewed daily. DAC was dissolved in PBS, whereas AN-8 was dissolved in ethanol to a concentration of 100 mM for DAC and 25 mM for AN-8.” for “serum.”
1) EGF-stimulated cultures, referred to as C. 2) EGF-stimulated cultures, exposed to 0.02% v/v ethanol, referred to as S. 3) EGF-stimulated cultures treated with DAC and/or AN-8.
At 72 h, cultured hepatocytes were harvested in ice-cold PBS. Cell pellets were lysed in homogenization buffer, sonicated and left for 1 hour on ice. After centrifugation, the protein concentration in the supernatant was determined. 50 μg proteins were separated by sodium dodecyl sulphate polyacrylamide gel electrophoresis (SDS-PAGE, 7.5%) and transferred to nitrocellulose membranes. Subsequently, membranes are immersed into Ponceau S to examine equal sample loading. […] Proteins were detected by using an enhanced chemiluminescence detection system. […]

Consider `CN(C)c1ccc(C(=O)NCCCCC(=O)NO)cc1` [4-Me2N-BAVAH, 5-(4-dimethylaminobenzoyl)-aminovaleric acid hydroxamide], for which the “inhibition of the DNA synthesis” value in data set [1] (50 μM) is recorded as “complete inhibition”. Also, the “dose-response of inhibition of DNA replication” value in data set [1] is on record as “clear dose-response relationship”. In data set [2] (50 μM), the “increase in albumin secretion compared to control cultures” value (“increase in albumin secretion” for short) is recorded as 2.4 fold.
As for `CCN(CC)Cc1ccc2cc(COC(=O)Nc3ccc(C(=O)NO)cc3)ccc2c1` [ITF2357], the apoptosis entry in data set [3] is “induce apoptosis”; in data set [4], “not”.
In the case of `CC(/C=C/C(=O)NO)=C\[C@@H](C)C(=O)c1ccc(N(C)C)cc1` [TSA, Trichostatin A], the apoptosis entry in data set [3] is on record as “induce apoptosis”; in data set [4], “not”.
In the case of `Nc1ncn([C@H]2C[C@H](O)[C@@H](CO)O2)c(=O)n1` [DAC, 5-aza-2′-deoxycytidine], in data set [1] (500 μM), the “inhibition of the DNA synthesis” value is “complete inhibition”. The “dose-response of inhibition of DNA replication” value in data set [1] was “clear dose-response relationship”. Also, in data set [5] (500 μM), the “cell shape vs untreated control cultures with EGF alone” value is “retained better the in vivo-like cuboidal shape” and the “inhibition of proliferation (morphological appearance) vs untreated +EGF culture” value was “clear inhibition of proliferation”. Besides, the “increase in albumin secretion” value in data set [2] (500 μM) is 1.8 fold. Also, in data set [6], the “CYP1A1 protein expression vs untreated hepatocyte cultures” value is recorded as “dose-dependent higher CYP1A1 protein expression”.
Turning to `CCCC(CCC)C(=O)O` [valproate], the figures for the apoptosis result in data set [3] and in data set [4] were “induce apoptosis” and “not”, respectively.
For the molecule `O=C(CCCCCNC(=O)c1ccc(N2CCCC2)cc1)NO` [AN-8], the “inhibition of the DNA synthesis” value in data set [1] (5 μM) was “complete inhibition”. In addition, the “dose-response of inhibition of DNA replication” value in data set [1] is “clear dose-response relationship”. In data set [5] (5 μM), the “cell shape vs untreated control cultures with EGF alone” value is “retained better the in vivo-like cuboidal shape” and the “inhibition of proliferation (morphological appearance) vs untreated +EGF culture” value is “clear inhibition of proliferation”. The “increase in albumin secretion” value in data set [2] (5 μM) came out at 2.1 fold. In addition, the “CYP1A1 protein expression vs untreated hepatocyte cultures” value in data set [6] is listed as “dose-dependent higher CYP1A1 protein expression”.
